Reference: patent US20210299039A1, “COMPOSITIONS AND METHODS FOR TREATING OCULAR DISEASE BY CONTACT LENS MEDIATED DRUG DELIVERY” (EyeGate Pharmaceuticals, Inc., priority 2020, published 2021)

What was measured:
[1] = Drug loading by soaking hydrogel discs in drug solution (weight gain); assay type: physicochemical; conditions: 48-hour soak, HEMA-based discs with 15% MPMA vs without; FIG. 5
Protocol: The HEMA-based hydrogels of formulation 5 in Table 1, were made with and without 15% MPMA. Unreacted components were extracted by washing in DI water for at least 3 hours, followed by washing in a 50:50 mixture of reagent alcohol and DI water for at least 3 hours, then washing again in DI water for at least 3 hours. Discs 15 mm in diameter were punched out and dried in a vacuum dessicator for at least 72 hours. The dry discs were weighed to get an initial weight without drug. Discs were then placed in a drug solution for 48 hours on a shaker at 200 rpm. Drug solutions used in this study can be found in Table 2. After 48 hours, the discs were removed from the drug solution, patted with a Kimwipe to remove solution from the surface, and then dried in a vacuum dessicator for at least 48 hours. The dry drug-loaded discs were weighed, and the amount of drug loaded was determined as the drug-loaded disc weight minus the initial weight.

[2] = Drug release into PBS and extraction from HEMA-based hydrogel discs; assay type: physicochemical; conditions: for effect of MPMA on total amount of drug released and extracted: HEMA-based discs with MPMA vs without, FIG. 7; for effect of MPMA on release over time: HEMA-based material with vs without MPMA, FIGS. 10 and 11
Protocol: At 0.5, 1, 2, 4, 6, and 8 hours the PBS was removed and fresh PBS was added.

[3] = Formulation 3
Protocol: HEMA-based hydrogels were prepared as described in Example 4 using Formulation 3.

[4] = Loss of crosslinked-in dexP during extraction washes (HPLC-UV); assay type: physicochemical; conditions: formulation 4 hydrogels with MPMA compared to without MPMA; FIG. 4
Protocol: Hydrogels were placed in deionized (DI) water for 35 minutes at 37° C./200 rpm, followed by 3 times in isopropyl alcohol for 25 minutes each at 37° C./200 rpm, then 2 additional times in DI water for 25 minutes each.

[5] = dexP release from silicone-based hydrogel discs into PBS; assay type: physicochemical
From the text: Silicone-based hydrogels similar to formulation 2 in Table 1, but with only 1% EGDMA, were made with and without 15% MPMA. Unreacted components were extracted as described in Example 4.

[6] = In vitro drug release into and across sclera tissue (Franz cell); assay type: in vitro ADME, Porcine; conditions: 4 minutes, 4 hours, 8 hours; HPLC-UV; FIG. 13
From the text: An experimental setup (shown in FIG. 12) for determining drug release from a soft contact lens hydrogel disc into and across sclera tissue was created using a glass Franz cell. The Franz cell was filled with PBS. A cell strainer (BD Falcon, […] nylon, 23 mm ID) was fitted onto the Franz cell as a framework to hold the sclera and hydrogel disc together. Porcine sclera tissue (21 mm diameter, 1 mm thick) was placed in the cell strainer, the drug-loaded hydrogel disc was placed onto the sclera tissue, and a glass bottle was placed on top of the disc to firmly hold the assembly together in the cell strainer. At 4 minutes, 4 hours, or 8 hours, the sclera tissue was removed and a sample of the PBS from the Franz cell was taken. The sclera tissue was digested using collagenase, and the amount of dexP in the digested sclera tissue and PBS was determined using HPLC-UV.

[7] = rabbit, in vivo
Protocol: Following sterilization, lenses were handled aseptically. […] Control (drug-free) lenses were soaked and then stored (at 4° C.) in sterile isotonic saline until use. Controls were used only for retention and ocular health assessments.
A total of 11 New Zealand White rabbits were used in this study: 2 animals were in the control group and 9 animals in the treatment group. The nictitating membranes of the rabbits were removed and the rabbits allowed to recover for 2 weeks prior to study initiation. For the study, a contact lens was placed on each eye of an animal and a tarsorrhaphy performed by placing a single staple in the corner of the eyelids to aid in retention of the contact lenses. Cage side observations of the animals occurred every 2 hours to monitor lens retention and ocular health. At 2, 4, and 8 hours following lens placement, 3 animals in the treatment group were euthanized, the staple and contact lens from each eye were removed, and ocular health was noted. The following tissues were then isolated: aqueous humor (AH), vitreous humor (VH), retina, choroid, cornea, conjunctiva, and sclera. The aqueous humor was retrieved from each eye using a sterile 30-gauge needle on a 1 mL syringe while the eyes were still intact in the animal. Tissues were transferred to pre-weighed, pre-labeled tubes in a box of dry ice. […]

Compound | effect of MPMA on amount of drug loaded [1] | effect of MPMA on total amount of drug released and extracted [2] | effect of MPMA on release over time [2] | also measured
C[C@]12C=CC(=O)C=C1CC[C@@H]1[C@@H]2[C@@H](O)C[C@@]2(C)[C@H]1CC[C@]2(O)C(=O)COP(=O)(O)O [predP, Prednisolone phosphate] | significantly increased the amount of drug loaded | significantly greater |  | 
Cc1ncc([N+](=O)[O-])n1CCO [Metronidazole] | did not affect loading | did not affect the amount released and extracted | very little effect | total amount of drug released and extracted compared between drugs ([2]; 10 mg/ml soaking solution for metronidazole vs 40 mg/ml for the other drugs): lower than for dexP and predP
C[C@@H]1C[C@H]2[C@@H]3CCC4=CC(=O)C=C[C@]4(C)[C@@]3(F)[C@@H](O)C[C@]2(C)[C@@]1(O)C(=O)COP(=O)([O-])[O-].[Na+].[Na+] [disodium dexP] |  |  |  | loading of dexP, disodium form compared to free acid form ([3]; 7 days soak in 40 mg/ml solution, FIG. 16): decreased loading and release; release of dexP, disodium form compared to free acid form ([3]; PBS up to 8 hours, FIG. 17): decreased loading and release
C[C@@H]1C[C@H]2[C@@H]3CCC4=CC(=O)C=C[C@]4(C)[C@@]3(F)[C@@H](O)C[C@]2(C)[C@@]1(O)C(=O)COP(=O)(O)O [dexP, dexamethasone phosphate] | significantly increased the amount of drug loaded | significantly greater |  | amount of incorporated dexP removed during water and alcohol washes [4]: very little of the incorporated dexP was removed; total amount of dexP released ([5]; silicone-based discs with 15% MPMA vs without, initial soak, release in PBS, FIG. 6A): significantly greater; amount of dexP released after re-loading ([5]; silicone-based discs with MPMA vs without, re-soaked overnight, FIG. 6B): greater amount of dexP release; amount of dexP in sclera tissue and PBS reservoir [6]: increasing amount of dexP in the sclera tissue and PBS over time; detection in ocular tissues [7]: detected in the tissues of treated animals at each timepoint; drug reaching the back of the eye [7]: drug concentrations observed in the VH, retina, and choroid
NC[C@H]1O[C@H](O[C@H]2[C@H](O)[C@@H](O[C@H]3O[C@H](CO)[C@@H](O)[C@H](N)[C@H]3O)[C@H](N)C[C@@H]2N)[C@H](N)C[C@@H]1O [Tobramycin] | did not affect loading | significantly decreased the amount of drug released and extracted | significantly reduced | 
